From patent EP1147080B1 (Wyeth Holdings Corporation, priority 1999, dated 2000) come the findings set out here.

Test [1] concerns the target T1, MMP-1 (Homo sapiens, UniProt P03956).
T1 sequence (P03956 100-469): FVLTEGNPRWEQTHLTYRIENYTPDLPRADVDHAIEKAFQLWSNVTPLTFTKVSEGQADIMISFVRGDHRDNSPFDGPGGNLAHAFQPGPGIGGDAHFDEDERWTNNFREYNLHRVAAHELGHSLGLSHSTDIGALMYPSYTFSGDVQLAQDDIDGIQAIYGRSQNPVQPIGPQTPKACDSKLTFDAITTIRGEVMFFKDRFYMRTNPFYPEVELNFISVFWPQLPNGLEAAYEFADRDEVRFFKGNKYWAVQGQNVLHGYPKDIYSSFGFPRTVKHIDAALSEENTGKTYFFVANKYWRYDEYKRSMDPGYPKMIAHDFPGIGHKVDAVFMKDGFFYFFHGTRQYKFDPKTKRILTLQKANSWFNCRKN
The test can be described thus: MMP-1 inhibition (thiopeptide or fluorescent peptide substrate). Conditions: for inhibition at 10 µM: read-out: MMP1.

In test [2] the target is TNF-α converting enzyme (TACE) (Homo sapiens, UniProt P78536). The test can be described thus: Test procedure for measuring TACE inhibition (fluorescent peptidyl substrate). It is filed as biochemical.
In test [3] the target is MMP-13 (Homo sapiens, UniProt P45452). The test can be described thus: MMP-13 inhibition (thiopeptide or fluorescent peptide substrate). The class given is biochemical. To be noted: read-out: MMP13; for inhibition at 10 µM: % @ 10µM per footnote a. From the text: Alternatively, a fluorescent peptide substrate is used.
For test [4], the system named is THP-1 cells. The test can be described thus: Human monocytic THP-1 cell differentiation assay for soluble proteins (THP soluble protein assay), LPS-stimulated, TNF-α ELISA. The class given is cell-based. To be noted: Table 1; concentration not given. From the text: Mitogenic stimulation of THP-1 cells cause differentiation into macrophage like cells with concomitant secretion of tumor necrosis factor (TNF-a) and TNF receptor (TNF-R p75/80 and TNF-R p55/60) and Interleukin-8 (IL-8), among other proteins. In addition, non-stimulated THP-1 cells shed both the p75/80 and the p55/60 receptors over time. The release of membrane bound TNF-a and possibly TNF-R p75/80 and TNF-R p55/60, but not IL-8, is mediated by an enzyme called TNF-α converting enzyme or TACE.
THP-1 cells (from ATCC) are a human monocytic cell line which were obtained from the peripheral blood of a person with acute monocytic leukemia. They can be grown in culture and differentiated into macrophage like cells by stimulation with mitogens.
Each vial of cells are cultured for about two weeks prior to being used for an assay and then are used for only 4 to 6 weeks to screen compounds.
Cell exposure to DMSO was limited to 0.1 % final concentration. […] Compounds can be evaluated for their effect on basal (non-stimulated) shedding of the receptors by replacing the LPS with […] of THP-1 media. Plates are placed into an incubator set at 5% CO2 and at 37°C. After 4 hours of incubation, […] of tissue culture supernatant (TCS) is removed for use in an TNF-α ELISA. Following 24 hours of incubation, […] of TCS is removed and used for analysis in TNF-R p75/80, TNF-R p55/60 and IL-8 ELISAs.
In addition, at the 24 hours timepoint, and the cells for each treatment group are collected by resuspension in 500 µl/well of THP-1 media and transferred into a FACS tube. […] The samples are run on a Becton Dickinson FaxCaliber FLOW cytometry machine and the amount of dye taken up by each cell is measured in the high red wavelength (FL3). Only cells with compromised membranes (dead or dying) can take up PI. The percent of live cells is calculated by the number of cells not stained with PI, divided by the total number of cells in the sample. The viability values calculated for the drug treated groups were compared to the viability value calculated for the vehicle treated mitogen stimulated group ("vehicle positive control") to determine the "percent change from control". This "percent change from control" value is an indicator of drug toxicity.
The quantity of soluble TNF-α, TNF-R p75/80 and TNF-R p55/60 and IL-8 in the TCS of the THP-1 cell cultures are obtained with commercially available ELISAs from R&D Systems, by extrapolation from a standard curve generated with kit standards. The number of cells that either take up or exclude PI are measured by the FLOW cytometry machine and visualized by histograms using commercially available Cytologic software for each treatment group including all controls.
Biological variability in the magnitude of the response of THP-1 cell cultures requires that experiments be compared on the basis of percent change from "vehicle positive control" for each drug concentration. Percent change in each soluble protein evaluated from the "vehicle positive control" was calculated for each compound concentration with the following formula: % Change =(pg/ml (compound) - pg/ml (veh pos control))/(pg/ml (veh pos control) - pg/ml (veh neg control))x 100 [formula]
For the soluble protein (TNF-a, p75/80, p55/60, IL-8) studies under stimulated conditions, the mean pg/ml of duplicate wells were determined and the results expressed as percent change from "vehicle positive control". For the soluble protein (p75/80 and p55/60 receptors) studies under non-stimulated conditions, the mean pg/ml of duplicate wells were determined and the results expressed as percent change from […] utilizing the following formula: % Change =(pg/ml (compound neg control) - pg/ml (veh neg control))/(pg/ml (veh neg control))X 100 [formula]
IC50 values for each compound are calculated by non-linear regression analysis using customized software utilizing the JUMP statistical package.
Background: An ELISA detects its analyte on a solid surface through an enzyme-linked reagent.

Setting [5] is: second table, IC50 (nM) per footnote a.

Sequence of TNF-α converting enzyme (TACE) (P78536 215-824): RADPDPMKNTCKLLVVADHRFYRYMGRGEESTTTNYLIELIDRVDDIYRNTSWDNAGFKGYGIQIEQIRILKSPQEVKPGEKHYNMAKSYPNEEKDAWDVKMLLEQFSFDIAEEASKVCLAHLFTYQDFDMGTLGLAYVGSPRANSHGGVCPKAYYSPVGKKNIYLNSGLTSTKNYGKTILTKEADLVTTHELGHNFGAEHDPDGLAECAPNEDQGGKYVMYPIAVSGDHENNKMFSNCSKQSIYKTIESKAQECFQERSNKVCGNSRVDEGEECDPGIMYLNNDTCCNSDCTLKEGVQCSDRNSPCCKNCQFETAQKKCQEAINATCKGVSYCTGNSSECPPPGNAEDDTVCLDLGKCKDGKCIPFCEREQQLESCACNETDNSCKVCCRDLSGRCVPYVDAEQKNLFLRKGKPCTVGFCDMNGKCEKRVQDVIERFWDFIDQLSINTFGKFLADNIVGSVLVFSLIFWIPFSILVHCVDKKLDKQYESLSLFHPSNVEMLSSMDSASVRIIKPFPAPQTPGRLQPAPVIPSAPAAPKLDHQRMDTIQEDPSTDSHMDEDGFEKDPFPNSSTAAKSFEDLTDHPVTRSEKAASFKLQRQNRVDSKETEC

Take `CC#CCOc1ccc(CCCC(=O)NO)cc1` [Example 12, 4-(4-But-2-ynyloxy-phenyl)-N-hydroxy-butyramide]: the IC50 in test [1] worked out at 10000 nM.

As for `CC#CCOc1ccc([S+]([O-])C(CCCCNC(=O)C(c2ccccc2)c2ccccc2)C(=O)NO)cc1` (stereo not drawn) [Example 30, 2-(4-But-2-ynyloxy-benzenesulfinyl)-6-diphenylacetylamino-hexanoic acid hydroxyamide], the IC50 is 20.1 nM in test [2] (Table 1) and 3300 nM in test [1].

The molecule `CC#CCOc1ccc(OCC(=O)NO)cc1` [Example 11, 2-(4-But-2-ynyloxy-phenoxy)-N-hydroxy-acetamide] displayed an IC50 in test [1] of 10000 nM.

`CC#CCOc1ccc([S+]([O-])[C@@H](C(=O)NO)c2ccc(Br)cc2)cc1` (single isomer, unassigned) [Example 87] gave a half-inhibitory concentration (IC50) in test [2] (setting [5]) of 336 nM. Moreover, the inhibition at 1 µM in test [3] (% at 1 um (specified in cell)) was 33%. The inhibition at 10 µM in test [1] was found to be 17%.

With `CC#CCOc1ccc([S+]([O-])C(CCCCNC(=O)C2c3ccccc3Oc3ccccc32)C(=O)NO)cc1` (stereo not drawn) [Example 29, 9H-Xanthene-9-carboxylic acid [5-(4-but-2-ynyloxy-benzenesulfinyl)-5-hydroxycarbamoyl-pentyl]-amide], the values for the IC50 in test [2] (Table 1) and in test [1] were 18.9 nM and 2000 nM, respectively.

Molecule `CC#CCOc1ccc(SC(C(=O)NO)c2cccc(Br)c2)cc1` (stereo not drawn) [Example 103, 2-{[4-(2-Butynyloxy)phenyl]sulfanyl}-N-hydroxy-2-(3-bromophenyl) acetamide] displayed an IC50 in test [2] (setting [5]) of 113 nM. For the same molecule, the results for the inhibition at 10 µM in test [3] and in test [1] were 12% and 4%, respectively.

`CC#CCOc1ccc(SC(C)C(=O)NO)cc1` (stereo not drawn) [Example 4, 2-(4-But-2-ynyloxy-phenylsulfanyl)-N-hydroxy-propionamide] had an IC50 in test [2] (Table 1) of 47.2 nM. Moreover, in test [4], the “THP (% inhibition)” value is 2%.

Regarding `CC#CCOc1ccc([S+]([O-])C(CCCCNC(=O)CNC(=O)C2c3ccccc3Oc3ccccc32)C(=O)NO)cc1` (stereo not drawn) [Example 59], the IC50 came to 22.6 nM in test [2] (Table 1) and 3400 nM in test [1].

With `CC#CCOc1ccc([S+]([O-])C(CCCCNC(=O)c2ccc3ccccc3n2)C(=O)NO)cc1` (mixture of isomers) [Example 23, Quinoline-2-carboxylic acid [5-(4-but-2-ynyloxy-benzenesulfinyl)-5-hydroxycarbamoyl-pentyl]-amide], the IC50 in test [2] (Table 1) was found to be 20.5 nM; in test [1] it was 3300 nM.

Take `CC#CCOc1ccc([S+]([O-])C(CCCCNC(=O)CNC(=O)Cc2ccc(Cl)c(Cl)c2)C(=O)NO)cc1` (stereo not drawn) [Example 57]: the IC50 amounted to 24.4 nM in test [2] (Table 1) and 4600 nM in test [1].

With `CC#CCOc1ccc([S+]([O-])C(CCCCNC(=O)CNC(=O)CCCc2cccs2)C(=O)NO)cc1` (stereo not drawn) [Example 58], the IC50 worked out at 20.1 nM in test [2] (Table 1) and 4600 nM in test [1].

As to `CC#CCOc1ccc([S+]([O-])C(CCCCNC(=O)CNC(=O)c2cnc3ccccc3c2)C(=O)NO)cc1` (stereo not drawn) [Example 53], the IC50 was found to be 15.2 nM in test [2] (Table 1) and 4000 nM in test [1].

In the case of `CC#CCOc1ccc([S+]([O-])C(CCCCNC(=O)CNC(=O)c2cccn2C)C(=O)NO)cc1` (stereo not drawn) [Example 61, 1-Methyl-1H-pyrrole-2-carboxylic acid {[5-(4-but-2-ynyloxy-benzenesulfinyl)-5-hydroxycarbamoylpentyl-carbamoyl]-methyl}-amide], the IC50 is 22.5 nM in test [2] (Table 1) and 5600 nM in test [1].

`CC#CCOc1ccc(SC(C(=O)NO)c2ccc(OCC)cc2)cc1` (stereo not drawn) [Example 100, 2-{[4-(2-butynyloxy)phenyl]sulfanyl}-N-hydroxy-2-(4-ethoxyphenyl) acetamide]: inhibition in test [2] (setting [5]) was half-maximal at 100 nM (IC50). Further, the inhibition at 10 µM in test [3] turned out to be 15%; in test [1], 2%.

Regarding `CC#CCOc1ccc([S+]([O-])C(CCCCNC(=O)CCCc2cccs2)C(=O)NO)cc1` (stereo not drawn) [Example 28, 2-(4-But-2-ynyloxy-benzenesulfinyl)-6-(4-thiophen-2-yl-butyrylamino)-hexanoic acid hydroxyamide], half-maximal inhibition in test [2] (Table 1) (IC50) was put at 26.6 nM.

In the case of `CC#CCOc1ccc(SC(CCCCNC(=O)CNC(=O)C2c3ccccc3Oc3ccccc32)C(=O)NO)cc1` (stereo not drawn) [Example 48, 9H-Xanthene-9-carboxylic acid {[5-(4-but-2-ynyloxy-phenylsulfanyl)-5-hydroxycarbamoylpentylcarbamoyl]-methyl}-amide], in test [2] (Table 1), the IC50 was 82.1 nM.

For the molecule `CC#CCOc1ccc([S+]([O-])C(CCCCNC(=O)CN2C(=O)c3ccccc3C2=O)C(=O)NO)cc1` (stereo not drawn) [Example 24, 2-(4-But-2-ynyloxy-benzenesulfinyl)-6-[2-(1,3-dioxo-1,3-dihydro-isoindol-2-yl)-acetylamino]-hexanoic acid hydroxyamide], in test [2] (Table 1), half-maximal inhibition (IC50) was put at 30 nM.

In test [2] (Table 1), `CC#CCOc1ccc(S(=O)(=O)C(CCCCNC(=O)CNC(=O)c2ccccc2CCc2ccccc2)C(=O)NO)cc1` (stereo not drawn) [Example 64, N-{[5-(4-But-2-ynyloxy-benzenesulfonyl)-5-hydroxycarbamoyl-pentylcarbamoyl]-methyl}-2-phenethyl-benzamide] displayed an IC50 of 42 nM.

Turning to `CC#CCOc1ccc([S+]([O-])C(CCCCNC(=O)CNC(=O)c2ccccc2CCc2ccccc2)C(=O)NO)cc1` (stereo not drawn) [Example 56], the IC50 in test [2] (Table 1) worked out at 21.9 nM; in test [1] it was 3900 nM.

`CC#CCOc1ccc(S(=O)(=O)C(CCCCNC(=O)CNC(=O)Cc2c[nH]c3ccccc23)C(=O)NO)cc1` (stereo not drawn) [Example 70, 2-(4-But-2-ynyloxy-benzenesulfonyl)-6-[2-(2-1H-indol-3-yl-acetylamino)-acetylamino]-hexanoic acid hydroxyamide] gave an IC50 in test [2] (Table 1) of 88.1 nM.

In test [2] (Table 1), `CC#CCOc1ccc(SC(CCCCNC(=O)CCCc2cccs2)C(=O)NO)cc1` (stereo not drawn) [Example 18, 2-(4-But-2-ynyloxy-phenylsulfanyl)-6-(4-thiophen-2-yl-butyrylamino)-hexanoic acid hydroxyamide] showed an IC50 of 36.9 nM.

“N-[5-(4-But-2-ynyloxy-benzenesulfonyl)-5-hydroxycarbamoyl-pentyl]-2-phenethyl-benzamide [Example 34]” registered an IC50 in test [2] (Table 1) of 147 nM.

Regarding `CC#CCOc1ccc(S(=O)(=O)C(CCCCNC(=O)CN2C(=O)c3ccccc3C2=O)C(=O)NO)cc1` (stereo not drawn) [Example 36, 2-(4-But-2-ynyloxy-benzenesulfonyl)-6-[2-(1,3-dioxo-1,3-dihydro-isoindol-2-yl)-acetylamino]-hexanoic acid hydroxyamide], the IC50 in test [2] (Table 1) was 16.8 nM.

In the case of `CC#CCOc1ccc([S+]([O-])C(C(=O)NO)c2ccc(OCC)cc2)cc1` (stereo not drawn) [Example 101, 2-{[4-(2-Butynyloxy)phenyl]sulfinyl}-N-hydroxy-2-(4-ethoxyphenyl) acetamide], the IC50 in test [2] (setting [5]) is 76 nM. For the same molecule, the inhibition at 10 µM in test [3] came out at 51%; in test [1] it was 8%.

Broadly, the IC50 is the concentration that inhibits the measured activity by half. A high value points to weaker potency.
